pIC50: −log10 of the molar value.
System: 633275-114-R-J1-PDC complex spheroids, viability
Assay: Anticancer human tumor 633275-114-R-J1-PDC patient-derived endometrial adenocarcinoma cell line growth inhibition [GQUAD]
Conditions: for pIC50: curve of first compound; for viability, T/C: stronger effect = lower value
Excerpt: DNA G-quadruplex Stabilizer Agents in Combinations in Complex Spheroids
A high-throughput screen of multi-cell type tumor spheroids was designed to identify active combinations of DNA G-quadruplex stabilizer agents and targeted small molecules. Complex spheroids include a stromal component modeled by human endothelial cells (HUVEC) and fibroblasts modeled by human mesenchymal stem cells (MSCs). The concentration ranges selected for each drug and investigational agent were based upon clinically achievable concentrations if the clinical Cmax of the agent was known.
Compounds. The drugs and investigational agents: pidnarulex (CX-5461; NSC782164), APTO-253 (NSC789042), BRACO-19 (NSC847499), peposertib (NSC802822), ceralasertib (NSC780249), elimusertib (NSC800525), camonsertib (NSC841442), AZD-1390 (NSC803789), olaparib (NSC753686), talazoparib (NSC767125), ART-558 (NSC835418), sotorasib (NSC818433), MRTX-1133 (NSC836407), SN-38 (NSC673596), topotecan (NSC609699), etoposide (NSC141540), doxorubicin (NSC123127), gemcitabine (NSC613327), 5-fluorouracil (NSC19893), paclitaxel (NSC125973), vemurafenib (NSC761431), panobinostat (NSC761190), R-306465 (JNJ-16241199; NSC773264), adavosertib (NSC754352), TP-3654 (NSC805149), carboplatin (NSC241240), KSQ-4279 (NSC840948), and staurosporine (NSC755774) were obtained from the National Cancer Institute (NCI) Developmental Therapeutics Program Chemical Repository (34). The FDA-approved anticancer drug set is available from the NCI Developmental Therapeutics Program. […] The stock solutions were prepared in dimethyl sulfoxide (DMSO, Sigma-Aldrich, St. Louis, MO, cat. D2650) at 800-fold the tested concentration and stored at -70 degrees C prior to their use. All drugs and investigational agents were tested over a range starting from a high concentration at or near the clinical Cmax and decreasing in half-log increments. If the clinical Cmax for an agent had not been determined, the highest concentration tested was 10 microM.
2.3 Cell Culture. All cells were maintained in an incubator at 37 degrees C and 5% CO2 with 95% humidity. The PDC lines were cultured according to standard operating procedures established by the NCI PDMR. All PDCs were thawed and cultured in Matrigel-coated flasks prepared with a working solution of 1X Ham's F-12 nutrient mix, without supplementation (Invitrogen, cat. 11765054), 100 U/mL penicillin-streptomycin (Invitrogen, cat. 15140122), and 2.5% Matrigel (Corning Inc., cat. 354248) for the first three passages. The 857933-349-R-J2-PDC line was cultured in 6C/Colon 1B media, which includes advanced DMEM/F-12 (Thermo Fisher Scientific, cat. 12634028), 10 mM HEPES (Thermo Fisher Scientific, cat. 15630080), 1X GlutaMAX supplement (Thermo Fisher Scientific, cat. 35050061), 0.1 mg/mL primocin (InvivoGen, cat. ant-pm-2), 10% defined fetal bovine serum, heat inactivated (HyClone Laboratories Inc., cat. SH30070.03HI), 50% L-WRN conditioned media (ATCC, cat. CRL-3276), 1.25 mM N-Acetyl-L-cysteine (Sigma-Aldrich, cat. A9165), 10 mM nicotinamide (Sigma-Aldrich, cat. N0636), 1X B-27 supplement (Thermo Fisher Scientific, cat. 17504044), 1X N-2 supplement (Thermo Fisher Scientific, cat. 17502048), 10 microM Y-27632 dihydrochloride (Tocris Bioscience, cat. 1254), and 50 ng/mL human EGF recombinant protein (Thermo Fisher Scientific, cat. PHG0311). The 485176-168-R4-J1-PDC line was cultured in Panc media, which includes all 6C/Colon 1B media components plus 100 ng/mL human FGF-10 (Thermo Fisher Scientific, cat. 100-26), 500 nM SB-431542 (Selleckchem, cat. S1067), and gastrin (Tocris, cat. 3006).
[…]

[1] = second compound 0.0316 µM, first compound 0.0316 µM
[2] = second compound 0.0316 µM, first compound 0.1 µM
[3] = second compound 0.0316 µM, first compound 0.316 µM
[4] = second compound 0.0316 µM, first compound 1 µM
[5] = second compound 0.0316 µM, first compound 3.16 µM
[6] = second compound 0.0316 µM, first compound 10 µM
[7] = second compound 0.1 µM, first compound 0.0316 µM
[8] = second compound 0.1 µM, first compound 0.1 µM
[9] = second compound 0.1 µM, first compound 0.316 µM
[10] = second compound 0.1 µM, first compound 1 µM
[11] = second compound 0.1 µM, first compound 3.16 µM
[12] = second compound 0.1 µM, first compound 10 µM
[13] = second compound 0.316 µM, first compound 0.0316 µM
[14] = second compound 0.316 µM, first compound 0.1 µM
[15] = second compound 0.316 µM, first compound 0.316 µM
[16] = second compound 0.316 µM, first compound 1 µM
[17] = second compound 0.316 µM, first compound 3.16 µM
[18] = second compound 0.316 µM, first compound 10 µM
[19] = second compound 1 µM, first compound 0.0316 µM
[20] = second compound 1 µM, first compound 0.1 µM
[21] = second compound 1 µM, first compound 0.316 µM
[22] = second compound 1 µM, first compound 1 µM
[23] = second compound 1 µM, first compound 3.16 µM
[24] = second compound 1 µM, first compound 10 µM
[25] = second compound 3.16 µM, first compound 0.0316 µM
[26] = second compound 3.16 µM, first compound 0.1 µM
[27] = second compound 3.16 µM, first compound 0.316 µM
[28] = second compound 3.16 µM, first compound 1 µM
[29] = second compound 3.16 µM, first compound 3.16 µM
[30] = second compound 3.16 µM, first compound 10 µM
[31] = second compound 10 µM, first compound 0.0316 µM
[32] = second compound 10 µM, first compound 0.1 µM
[33] = second compound 10 µM, first compound 0.316 µM
[34] = second compound 10 µM, first compound 1 µM
[35] = second compound 10 µM, first compound 3.16 µM
[36] = second compound 10 µM, first compound 10 µM
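Also: spheroids exposed to the agents for seven days.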
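For viability, T/C in this document: percent of DMSO vehicle control viability which is 100%.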

`O=C(c1cc(Cc2n[nH]c(=O)c3ccccc23)ccc1F)N1CCN(C(=O)C2CC2)CC1` + CN(C)c1ccc(Nc2c3ccc(NC(=O)CCN4CCCC4)cc3nc3cc(NC(=O)CCN4CCCC4)ccc23)cc1 was tested, and the pIC50 (second compound 0.0316 µM) was 5.00, the pIC50 (second compound 0.1 µM) was 5.00 and the pIC50 (second compound 0.316 µM) was less than 5.00. The pIC50 (second compound 1 µM) was less than 5.00, the pIC50 (second compound 3.16 µM) was 5.27 and the pIC50 (second compound 10 µM) was greater than 7.50. For the same compound, the viability, T/C [1] was 88.7%, the viability, T/C [2] was 93.8% and the viability, T/C [3] was 95%. It also gave a viability, T/C [4] of 80%, a viability, T/C [5] of 81.6% and a viability, T/C [6] of 49.2%. For the same compound, the viability, T/C [7] was 95.5%, the viability, T/C [8] was 98.1% and the viability, T/C [9] was 92.7%. The viability, T/C [10] was 79.7%, the viability, T/C [11] was 69% and the viability, T/C [12] was 49.2%. It also gave a viability, T/C [13] of 91.1%, a viability, T/C [14] of 99.8% and a viability, T/C [15] of 88.4%. It also gave a viability, T/C [16] of 76.1%, a viability, T/C [17] of 75.8% and a viability, T/C [18] of 58.4%. For the same compound, the viability, T/C [19] was 104%, the viability, T/C [20] was 82.9% and the viability, T/C [21] was 78.7%. It also gave a viability, T/C [22] of 78.3%, a viability, T/C [23] of 69.8% and a viability, T/C [24] of 47.8%. For the same compound, the viability, T/C [25] was 75.5%, the viability, T/C [26] was 80.6% and the viability, T/C [27] was 69.6%. It also gave a viability, T/C [28] of 65.5%, a viability, T/C [29] of 62.9% and a viability, T/C [30] of 38%. The viability, T/C [31] was 25.3%, the viability, T/C [32] was 26.1% and the viability, T/C [33] was 27.1%. It also gave a viability, T/C [34] of 25.4%, a viability, T/C [35] of 29% and a viability, T/C [36] of 21.1%.

For `O=c1[nH]cc(F)c(=O)[nH]1` + CN(C)c1ccc(Nc2c3ccc(NC(=O)CCN4CCCC4)cc3nc3cc(NC(=O)CCN4CCCC4)ccc23)cc1, the pIC50 (second compound 0.0316 µM) was less than 5.00, the pIC50 (second compound 0.1 µM) was less than 5.00 and the pIC50 (second compound 0.316 µM) was less than 5.00. It also gave a pIC50 (second compound 1 µM) of less than 5.00, a pIC50 (second compound 3.16 µM) of less than 5.00 and a pIC50 (second compound 10 µM) greater than 7.50. It also gave a viability, T/C [1] of 112%, a viability, T/C [2] of 96% and a viability, T/C [3] of 96.9%. For the same compound, the viability, T/C [4] was 88.1%, the viability, T/C [5] was 88.5% and the viability, T/C [6] was 66%. For the same compound, the viability, T/C [7] was 97.6%, the viability, T/C [8] was 98.8% and the viability, T/C [9] was 91.4%. The viability, T/C [10] was 96.6%, the viability, T/C [11] was 88.4% and the viability, T/C [12] was 76.5%. For the same compound, the viability, T/C [13] was 86.9%, the viability, T/C [14] was 90.1% and the viability, T/C [15] was 97.3%. The viability, T/C [16] was 100%, the viability, T/C [17] was 86.2% and the viability, T/C [18] was 66.2%. The viability, T/C [19] was 79.8%, the viability, T/C [20] was 91.8% and the viability, T/C [21] was 98.9%. It also gave a viability, T/C [22] of 99%, a viability, T/C [23] of 84.9% and a viability, T/C [24] of 64.3%. For the same compound, the viability, T/C [25] was 83.2%, the viability, T/C [26] was 85.9% and the viability, T/C [27] was 85.2%. It also gave a viability, T/C [28] of 74%, a viability, T/C [29] of 77.9% and a viability, T/C [30] of 56.8%. The viability, T/C [31] was 36%, the viability, T/C [32] was 38.3% and the viability, T/C [33] was 30.2%. The viability, T/C [34] was 33.1%, the viability, T/C [35] was 32.2% and the viability, T/C [36] was 26.4%.

Source: PubChem BioAssay AID2060505 (Molecular Pharmacology Branch, DTP, NCI, 2025)
